One data set has as its system Q111 cells. As to the kind of experiment: FRET-based histone H3K9 methylation biosensor live cell imaging. The method, then: Fluorescence resonance energy transfer (FRET)-based histone H3K9 methylation biosensor was previously described. In brief, H3K9 biosensor is composed of a methyl-lysine binding domain of HP1 protein and a H3 tail peptide containing lysine9 between ECFP and YPet, and the NLS sequences were added in the C-terminal for the nucleus localisation of the biosensor. For the image acquisition, Q7 or Q111 cells were cultured on cover-glass-bottom dishes and the H3K9 biosensor was transfected into the cells using Lipofectamine 2000 (Invitrogen, Carlsbad, CA) according to the manufacturer’s protocols. Images were collected by a Nikon Ti-E inverted microscope with 420DF20 excitation filter, 450DRLP dichroic mirror, and two emission filters (475DF40 for ECFP and 535DF25 for YPet) controlled by a filter changer. Image analysis was performed using NIS element-AR software. Nucleus regions were selected as the regions of interests and the emission ratio of ECFP and YPet was calculated after background subtraction. The colour of each pixel was determined by the ECFP/YPet ratio value.
(§1) Moreover, the promoter assay was carried out.

Data set [1] concerns striatum of YAC128 mice. Kind of data set: Histology and immunohistochemistry of the striatum of YAC128 mice (Nissl, H3K9me3, DARPP-32, calbindin, DAPI, SUV39H1). The class given is in vivo, mouse. As to the method:
(§2) YAC128 mice were bred with females from their background strain (B6CBAFI/J), and offspring were genotyped using PCR as previously described. All mice were weighed at 3 weeks of age and equally distributed according to weight and percentage within each cohort. […] The biochemical and behavioural/neuropathological symptoms of mice were determined after 4 weeks of drug administration. These procedures were performed in accordance with Guide for the Care and Use of Laboratory Animals guidelines. The animal protocol was approved by IACUC (Institutional Animal Care and Use Committee) in Hanyang University, Ansan, Republic of Korea.
(§3) Immunofluorescence staining and confocal microscopy was used to determine the trimethylated-histone H3 (Lys9) (H3K9me3) (Millipore, Billerica, MA) (1:1000). The procedures were performed as previously described. The specimens were incubated for 1 h with Alexa Fluor 594 goat anti-rabbit antibody (abcam, Cambridge, UK; 1:400) after incubation of the primary antibody. Images were analysed using an A1 Nikon confocal laser scanning microscope (Nikon, Tokyo, Japan).
DARPP-32 is a dopamine- and cAMP-regulated neuronal phosphoprotein, which plays an important role in dopamine neurotransmission. Its expression is severely impaired in the striatum of YAC128 mice compared with that of WT mice.
White nodes are interacting genes with the seed genes identified by the network analysis algorithm of IPA. The network represented dense connections between the epigenome associated with chromatin modification (such as Suv39h1, Mecp2, KDM5c, etc.), transcription regulation (such as Elk1, Foxp4, Hoxa6, Dhx9, etc.), metabolic process (such as Acsl4, Fbp2, Nat2, etc.), and signal transduction pathways (such as Cnksr2, Dusp9, Rab9, etc.) (Figure 8(d)). Especially, SUV39H1, a histone H3K9 methyltransferase, was closely associated with signalling pathways and other modules (Figure 8(d)). We further verified that SUV39H1 immunoreactivity was markedly elevated in YAC128 mice (Figure 8(e)).

The subject of data set [2] is HD (Q111/Q111) striatal cells. Kind of data set: Western blot analysis of SETDB1 protein and H3K9me3 level in HD (Q111) cells. The note with it: HD (Q111) cell. The class given is cell-based. As to the method:
(§4) Cells were homogenised with Dounce homogeniser in […] of phosphate-buffered saline containing 0.4 mM sodium butyrate, 5% Triton X-100, 3 mM DTT, 1 mM sodium orthovanadate, 5 mM sodium fluoride, 3 mM PMSF, 3 mM DTT, 0.5 mg/ml leupeptin, and 10 mg/ml aprotinin as previously described. The nuclear pellets were collected and washed twice with the above-described 5% Triton buffer. Histones were extracted by solubilising in […] of 0.2 M HCl on a shaker for 2 h. After neutralising the pH of the acid-extracted solution containing the histone pool with ammonium acetate, the protein content was quantified. Each histone extract (an amount of 10 mg/20 ml) was placed onto each well of the dot blot apparatus pre-assembled with a nitrocellulose membrane and vacuumed for 30 min. After releasing the vacuum, the nitrocellulose membrane was removed and washed twice with TBS-T for 5 min. Then, the nitrocellulose membrane was blocked with 5% milk/TBS-T for 30 min and subsequently incubated with primary antibody in 5% milk/TBS-T for 24 h at cold room. The nitrocellulose membrane was washed twice with TBS-T for 5 min and incubated with secondary antibody in 1% milk (15 ml) for one hour at room temperature. After washing the membrane twice with TBS-T for 5 min, the immune reactivity was developed with Chemiluminescent Kit. […]
A general note: In western blotting, separated proteins are transferred to a membrane and probed.

In data set [3] the test system is striatum of YAC128 mice. As to the kind of experiment: Acid histone extraction and Western blot of H3K9 methylation in the striatum of YAC128 mice. The note with it: YAC128 mice vs vehicle-treated YAC128 mice. The class given is in vivo, mouse. The method, then:
as §4, with “Each histone extract (an amount of 10 mg/20 ml) was placed onto each well of the dot blot apparatus pre-assembled with a nitrocellulose membrane and vacuumed for 30 min.” left out, “temperature.” for “temperature. After washing the membrane twice with TBS-T for 5 min, the immune reactivity was developed with Chemiluminescent Kit.”
YAC128 mice were bred with females from their background strain (B6CBAFI/J), and offspring were genotyped using PCR as previously described. […] The biochemical and behavioural/neuropathological symptoms of mice were determined after 4 weeks of drug administration. […]

Data set [4] has as its system HD (Q111/Q111) striatal cells. As to the kind of experiment: Confocal microscopy of H3K9me3 immunoreactivity in HD cells. The format is cell-based. As to the method: as §3, §1
For data set [5], the system named is YAC128 mice. As to the kind of experiment: Toxicity on administration to YAC128 mice. The class given is in vivo. The note with it: HD transgenic (YAC128) mice. As to the method: as §2
Data set [6] has as its system YAC128 mice. Kind of data set: Rotarod test in HD transgenic (YAC128) mice. The class given is in vivo, mouse. The conditions noted are these: i.p. five times a week, after 4 weeks, vs vehicle treated YAC128 mice. The method, then:
as §2
For orientation: Falling from the rotarod earlier than controls is read as motor impairment.

For the compound `C=CCOc1cccc2nc(N3CCCC3)ccc12` [APQ, 5-allyloxy-2-(pyrrolidin-1-yl)quinoline], the “FRET/ECFP ratios of H3K9 methylation” value in the data set with Q111 cells is given as “effectively modulates”. Moreover, in the data set with striatum of YAC128 mice [1], the “DARPP-32 expression in the striatum” value is “considerably improved”, the “immunoreactive intensity of calbindin stained neurons” value was “increased” and the “nuclei size of medium spiny neurons (DAPI)” value is “restores”. Moreover, in the data set with striatum of YAC128 mice [1] (comparable to the level of WT controls), the “H3K9me3 immunoreactivity in striatal neurons” value is “significantly reduced”. The “level of SUV39H1 (immunoreactivity) in striatal neurons” value with striatum of YAC128 mice [1] (similar to the level in WT mice) is on record as “significantly reduced”. Besides, in the data set on striatum of YAC128 mice [1] (striatum), the “neuronal atrophy / size of striatal medium spiny neurons (Nissl staining)” value was “significantly restored”. The H3K9me3 level result in data set [2] is reported as “reduced”. Further, the SETDB1 protein levels entry in data set [2] (dose-dependent) is on record as “significantly decreased”. Further, the “H3K9me3, H3K9me1 and H3K9me2 levels in the striatum (Western blot)” value in the data set with striatum of YAC128 mice [3] is listed as “selectively decreased H3K9me3 levels but not H3K9me1 or H3K9me2 levels”. Further, the H3K9me3 immunoreactivity entry in data set [4] was “considerably decreased”. The toxicity result in the data set with YAC128 mice [5] is “minimal toxicity”. Further, the “motor behaviour (rotarod test)” value in the data set on YAC128 mice [6] is listed as “significantly improved”.

(Values after article PMC8008885 (Journal of Enzyme Inhibition and Medicinal Chemistry, 2021).)
